This note sets out measurements from PubChem BioAssay (NCI).

Where “and” joins values, the source holds several entries; their conditions need not be identical. Identical values can stand only once.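 Five compound concentrations were applied to cells in 96-well plates for 48 hours; endpoints were derived by simple linear interpolation of the resulting dose-response curve. GI50 marks 50% less growth. TGI marks complete inhibition of growth.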

Some test systems named below: IGROV1 ovarian; MALME-3M melanoma; 786-0 renal; SW-620 colon; NCI-H460 lung; UO-31 renal; OVCAR-8 ovarian; DU-145 prostate; OVCAR-3 ovarian; ACHN renal.
Common to all, as to test: growth of human tumour cells (NCI), 48 h

In the case of `NC(=O)NC1C(c2ccccc2)=C1c1ccccc1`, the TGI in the assay on IGROV1 ovarian was 28.4 µM; in the assay with MALME-3M melanoma it was 61 µM; in the assay with 786-0 renal, 73.8 µM; with SW-620 colon, 37.5 µM; in the assay with NCI-H460 lung it was 36 µM; with UO-31 renal, 28.8 µM. For the same molecule, the TGI was 25.5 µM with OVCAR-8 ovarian, greater than 100 µM with DU-145 prostate, 82.9 µM in the assay with OVCAR-3 ovarian and 31.2 µM with ACHN renal.

With `Cn1nc(N)c2cc([C@@H]3Nc4ccc5[nH]ncc5c4[C@H]4C5CCC(C5)[C@@H]34)ccc21` (some centres undefined), the GI50 with IGROV1 ovarian was 0.756 µM; in the assay on MALME-3M melanoma, 0.442 µM; in the assay with 786-0 renal, 0.586 µM; with SW-620 colon it was 0.391 µM; in the assay on NCI-H460 lung it was 0.402 µM; in the assay on UO-31 renal it was 0.831 µM. The GI50 in the assay with OVCAR-8 ovarian is 0.979 µM; with DU-145 prostate it was 0.438 µM; in the assay with OVCAR-3 ovarian, 0.337 µM; in the assay with ACHN renal it was 0.593 µM. The TGI in the assay with IGROV1 ovarian was 22.8 µM; with MALME-3M melanoma it was 32.7 µM; with 786-0 renal, 18.1 µM; with SW-620 colon, 28 µM; in the assay on NCI-H460 lung, 11.6 µM; in the assay on UO-31 renal it was 40.8 µM. In addition, the TGI with OVCAR-8 ovarian is greater than 88.2 µM; with DU-145 prostate it was 37.7 µM; in the assay with OVCAR-3 ovarian it was 4.07 µM; in the assay with ACHN renal, 41.1 µM.

Take `CCC(C)n1ncn(-c2ccc(N3CCN(c4ccc(OCC5COC(Cn6cncn6)(c6ccc(Cl)cc6Cl)O5)cc4)CC3)cc2)c1=O` (centres undefined): the GI50 with IGROV1 ovarian is 82.5 µM; in the assay with MALME-3M melanoma, 46.2 µM; with 786-0 renal it was 0.559 µM; in the assay on SW-620 colon, greater than 100 µM; in the assay with NCI-H460 lung, 9.62 µM; with UO-31 renal, 30 µM. For the same molecule, the GI50 with OVCAR-8 ovarian was 20.2 µM; in the assay on DU-145 prostate, greater than 100 µM; with OVCAR-3 ovarian, 40.9 µM; with ACHN renal it was 21.7 µM. The TGI with IGROV1 ovarian was greater than 100 µM; in the assay with MALME-3M melanoma, greater than 100 µM; in the assay on 786-0 renal, 32.7 µM; in the assay with SW-620 colon it was greater than 100 µM; in the assay on NCI-H460 lung, greater than 100 µM; with UO-31 renal, greater than 100 µM. The TGI in the assay on OVCAR-8 ovarian, in the assay with DU-145 prostate, in the assay on OVCAR-3 ovarian and in the assay on ACHN renal was greater than 100 µM in each case.

Turning to `CC(=O)c1cccc(NC(=O)C(=O)NNc2n[nH]c(=S)n2N)c1`, the TGI with IGROV1 ovarian worked out at 25.8 µM; in the assay on MALME-3M melanoma it was 5.18 µM; in the assay with 786-0 renal it was 25.5 µM; in the assay on SW-620 colon, 22.5 µM; with NCI-H460 lung it was 13.3 µM; in the assay with UO-31 renal, 22.6 µM. Also, the TGI with OVCAR-8 ovarian was 24.1 µM; in the assay with DU-145 prostate, 19.2 µM; in the assay with OVCAR-3 ovarian, 15.9 µM; in the assay on ACHN renal it was 19.7 µM.

Take `CNC(=O)N(C)N=NCCCl`: the TGI in the assay with IGROV1 ovarian, in the assay with MALME-3M melanoma, in the assay with 786-0 renal, in the assay on SW-620 colon, in the assay with NCI-H460 lung and with UO-31 renal was greater than 100 µM each time. Also, the TGI in the assay with OVCAR-8 ovarian, in the assay with DU-145 prostate, in the assay with OVCAR-3 ovarian and in the assay on ACHN renal was greater than 100 µM each time.

Regarding `O/N=C/C1C(OCc2ccccc2)C(OCc2ccccc2)C(OCc2ccccc2)CN1Cc1ccccc1` (centres undefined), the TGI in the assay on IGROV1 ovarian was 65.9 µM and > 100 µM; in the assay on MALME-3M melanoma it was 97.6 µM and 33.6 µM; with 786-0 renal, 21.1 µM and > 100 µM; in the assay on SW-620 colon, greater than 100 µM; in the assay with NCI-H460 lung, 32.4 µM and 29.9 µM; with UO-31 renal, 65.9 µM and > 100 µM. Further, the TGI with OVCAR-8 ovarian is 39.9 µM and > 100 µM; in the assay on DU-145 prostate, greater than 100 µM; in the assay on OVCAR-3 ovarian, 40.2 µM and > 100 µM; in the assay on ACHN renal it was 37.4 µM and > 100 µM. For the same molecule, the GI50 in the assay on NCI-H460 lung is 8.94 µM and 3.24 µM; in the assay with UO-31 renal, 20 µM and 5.22 µM; in the assay with OVCAR-3 ovarian it was 16.9 µM and 7.69 µM; in the assay on ACHN renal it was 15.2 µM and 4.4 µM.

Turning to `Cc1ccc(C)c(C2=C(c3cn(C)c4ccccc34)C(=O)NC2=O)c1`, the GI50 in the assay on IGROV1 ovarian was 24.8 µM; with MALME-3M melanoma, greater than 25 µM; in the assay on 786-0 renal it was greater than 25 µM; with SW-620 colon it was 13 µM; in the assay on NCI-H460 lung, greater than 17.4 µM; in the assay with UO-31 renal, 13.4 µM. For the same molecule, the GI50 is greater than 24.2 µM with OVCAR-8 ovarian, greater than 20.2 µM in the assay on DU-145 prostate, 15.1 µM in the assay with OVCAR-3 ovarian and 9.15 µM with ACHN renal. Moreover, the TGI in the assay with IGROV1 ovarian, in the assay on MALME-3M melanoma, in the assay on 786-0 renal, in the assay with SW-620 colon, in the assay on NCI-H460 lung and with UO-31 renal was greater than 25 µM throughout. Further, the TGI with OVCAR-8 ovarian, with DU-145 prostate, in the assay with OVCAR-3 ovarian and in the assay on ACHN renal was greater than 25 µM each time.

In the case of `CC(C)=CCNc1ncnc2c1ncn2C1OC(CO)C(O)C1O` (centres undefined), the GI50 with IGROV1 ovarian was 0.573 µM; in the assay with MALME-3M melanoma it was 226 µM; in the assay on 786-0 renal, 1.37 µM; with SW-620 colon, 0.725 µM; with NCI-H460 lung, 4.02 µM; with UO-31 renal, 6.94 µM. The GI50 was 0.496 µM in the assay with OVCAR-8 ovarian, 0.277 µM with DU-145 prostate, 0.373 µM in the assay with OVCAR-3 ovarian and 0.987 µM in the assay on ACHN renal. For the same molecule, the TGI was 19.2 µM in the assay with IGROV1 ovarian; greater than 1000 µM in the assay with MALME-3M melanoma; 11.4 µM in the assay with 786-0 renal; 24.7 µM in the assay with SW-620 colon; greater than 345 µM in the assay with NCI-H460 lung; 50 µM in the assay with UO-31 renal. Besides, the TGI with OVCAR-8 ovarian is 3.34 µM; in the assay with DU-145 prostate it was 0.943 µM; with OVCAR-3 ovarian, 1.1 µM; in the assay on ACHN renal, greater than 526 µM.

Consider `C=C(c1nc2ccc(Cl)cc2[nH]c1=O)C(O)c1ccc(C(O)C(=O)c2nc3ccc(Cl)cc3[nH]c2=O)cc1` (centres undefined), for which the TGI in the assay with IGROV1 ovarian, in the assay with MALME-3M melanoma, in the assay on 786-0 renal, in the assay with SW-620 colon, with NCI-H460 lung and in the assay on UO-31 renal was greater than 100 µM in each case. The TGI with OVCAR-8 ovarian, in the assay with DU-145 prostate, in the assay with OVCAR-3 ovarian and in the assay with ACHN renal was greater than 100 µM throughout.
